Measured values: ChEMBL document CHEMBL3044853, “Anti-HIV-1 and cytotoxicity studies of piperidyl-thienyl chalcones and their 2-pyrazoline derivatives” (Med Chem Res, 2012)
pEC50, pIC50: −log10 of the molar value.

Columns and labels:
PBMC = assay: Cytotoxicity against Homo sapiens (human) PBMCs after 5 days celltiter 96 aqueous assay; assay type: cell-based; conditions: 120 h
CCRF-CEM = assay: Cytotoxicity against Homo sapiens (human) CEM cells after 5 days celltiter 96 aqueous assay; assay type: cell-based; conditions: 120 h
Vero = assay: Cytotoxicity against Chlorocebus aethiops (African green monkey) Vero cells after 5 days celltiter 96 aqueous assay; assay type: cell-based; conditions: Chlorocebus sabaeus, 120 h
[1] = test system: Human immunodeficiency virus 1; assay: Antiviral activity against 0.1 MOI of Human immunodeficiency virus 1 LAI infected human PBM cells after 2 to 3 hr by scintillation counting analysis in presence of [3H]thymidine-5'-triphosphate; assay type: functional, organism-based; conditions: PBMC

Cc1csc(C(=O)/C=C/c2ccc(N3CCCCC3)cc2)c1
pIC50 (PBMC): 4.16 | pIC50 (CCRF-CEM): 4.48 | pIC50 (Vero): 4.25 | pEC50 [1]: 4.94 | EC90 [1]: 23.1 µM

Cc1ccc(C(=O)/C=C/c2ccc(N3CCCCC3)cc2)s1
pIC50 (PBMC): 4.11 | pIC50 (CCRF-CEM): 4.67 | pIC50 (Vero): 4.30 | pEC50 [1]: 4.75 | EC90 [1]: 30.9 µM

Cc1cc(C(=O)/C=C/c2ccc(N3CCCCC3)cc2)c(C)s1
pIC50 (PBMC): 4.42 | pIC50 (CCRF-CEM): 4.78 | pIC50 (Vero): 4.37 | pEC50 [1]: 4.94 | EC90 [1]: 23.6 µM

O=C(/C=C/c1ccc(N2CCCCC2)cc1)c1sccc1Cl
pIC50 (PBMC): 4.49 | pIC50 (CCRF-CEM): 4.91 | pIC50 (Vero): 4.74 | pEC50 [1]: 5.08 | EC90 [1]: 29 µM

O=C(/C=C/c1ccc(N2CCCCC2)cc1)c1ccc(Cl)s1
pIC50 (PBMC): < 4.00 | pIC50 (CCRF-CEM): 4.38 | pIC50 (Vero): 4.49 | pEC50 [1]: 4.45 | EC90 [1]: ≥ 100 µM

O=C(/C=C/c1ccc(N2CCCCC2)cc1)c1cc(Cl)sc1Cl
pIC50 (PBMC): 4.37 | pIC50 (CCRF-CEM): 4.82 | pIC50 (Vero): 4.60 | pEC50 [1]: 4.93 | EC90 [1]: 24.7 µM

O=C(/C=C/c1ccc(N2CCCCC2)cc1)c1sccc1Br
pIC50 (PBMC): 4.41 | pIC50 (CCRF-CEM): 4.90 | pIC50 (Vero): 4.74 | pEC50 [1]: 5.24 | EC90 [1]: 27.8 µM

O=C(/C=C/c1ccc(N2CCCCC2)cc1)c1ccc(Br)s1
pIC50 (PBMC): < 4.00 | pIC50 (CCRF-CEM): 4.28 | pIC50 (Vero): 4.16 | pEC50 [1]: 4.33 | EC90 [1]: ≥ 100 µM

O=C(/C=C/c1ccc(N2CCCCC2)cc1)c1ccc(I)s1
pIC50 (PBMC): < 4.00 | pIC50 (CCRF-CEM): 4.66 | pIC50 (Vero): 4.25 | pEC50 [1]: 4.94 | EC90 [1]: ≥ 100 µM

c1csc(C2=NNC(c3ccc(N4CCCCC4)cc3)C2)c1 (configuration not stated)
pIC50 (PBMC): 4.68 | pIC50 (CCRF-CEM): 5.16 | pIC50 (Vero): 5.49 | pEC50 [1]: 5.14 | EC90 [1]: 26.8 µM

c1cc(C2=NNC(c3ccc(N4CCCCC4)cc3)C2)cs1 (configuration not stated)
pIC50 (PBMC): < 4.00 | pIC50 (CCRF-CEM): 4.57 | pIC50 (Vero): 4.53 | pEC50 [1]: 4.95 | EC90 [1]: ≥ 100 µM

Cc1ccsc1C1=NNC(c2ccc(N3CCCCC3)cc2)C1 (configuration not stated)
pIC50 (PBMC): 4.96 | pIC50 (CCRF-CEM): 5.64 | pIC50 (Vero): 4.94 | pEC50 [1]: 5.29 | EC90 [1]: 15.5 µM

Cc1csc(C2=NNC(c3ccc(N4CCCCC4)cc3)C2)c1 (configuration not stated)
pIC50 (PBMC): 4.61 | pIC50 (CCRF-CEM): 4.79 | pIC50 (Vero): 4.50 | pEC50 [1]: 4.89 | EC90 [1]: 24.9 µM

Cc1ccc(C2=NNC(c3ccc(N4CCCCC4)cc3)C2)s1 (configuration not stated)
pIC50 (PBMC): 4.06 | pIC50 (CCRF-CEM): 4.82 | pIC50 (Vero): 4.28 | pEC50 [1]: 5.14 | EC90 [1]: 52.9 µM

Cc1cc(C2=NNC(c3ccc(N4CCCCC4)cc3)C2)c(C)s1 (configuration not stated)
pIC50 (PBMC): 4.11 | pIC50 (CCRF-CEM): 4.70 | pIC50 (Vero): 4.08 | pEC50 [1]: 4.77 | EC90 [1]: 29.8 µM

Clc1ccsc1C1=NNC(c2ccc(N3CCCCC3)cc2)C1 (configuration not stated)
pIC50 (PBMC): 4.47 | pIC50 (CCRF-CEM): 4.99 | pIC50 (Vero): 4.50 | pEC50 [1]: 5.62 | EC90 [1]: 13.1 µM

Clc1ccc(C2=NNC(c3ccc(N4CCCCC4)cc3)C2)s1 (configuration not stated)
pIC50 (PBMC): < 4.00 | pIC50 (CCRF-CEM): < 4.00 | pIC50 (Vero): < 4.00 | pEC50 [1]: 4.12 | EC90 [1]: > 100 µM

Clc1cc(C2=NNC(c3ccc(N4CCCCC4)cc3)C2)c(Cl)s1 (configuration not stated)
pIC50 (PBMC): 4.23 | pIC50 (CCRF-CEM): 4.42 | pIC50 (Vero): 4.27 | pEC50 [1]: 4.49 | EC90 [1]: > 100 µM

Brc1ccsc1C1=NNC(c2ccc(N3CCCCC3)cc2)C1 (configuration not stated)
pIC50 (PBMC): 4.24 | pIC50 (CCRF-CEM): 4.50 | pIC50 (Vero): 4.61 | pEC50 [1]: 4.76 | EC90 [1]: 30.4 µM

Brc1ccc(C2=NNC(c3ccc(N4CCCCC4)cc3)C2)s1 (configuration not stated)
pIC50 (PBMC): 4.10 | pIC50 (CCRF-CEM): 4.67 | pIC50 (Vero): 4.59 | pEC50 [1]: 5.05 | EC90 [1]: 33.3 µM

Ic1ccc(C2=NNC(c3ccc(N4CCCCC4)cc3)C2)s1 (configuration not stated)
pIC50 (PBMC): < 4.00 | pIC50 (CCRF-CEM): 4.44 | pIC50 (Vero): 4.80 | pEC50 [1]: 4.84 | EC90 [1]: 43.6 µM

O=C(/C=C/c1ccc(N2CCCCC2)cc1)c1cccs1
pIC50 (PBMC): < 4.00 | pIC50 (CCRF-CEM): 4.94 | pIC50 (Vero): 4.18 | pEC50 [1]: 4.13 | EC90 [1]: ≥ 100 µM

O=C(/C=C/c1ccc(N2CCCCC2)cc1)c1ccsc1
pIC50 (PBMC): < 4.00 | pIC50 (CCRF-CEM): 4.49 | pIC50 (Vero): 4.46 | pEC50 [1]: 4.25 | EC90 [1]: ≥ 100 µM

Cc1ccsc1C(=O)/C=C/c1ccc(N2CCCCC2)cc1
pIC50 (PBMC): 4.58 | pIC50 (CCRF-CEM): 5.00 | pIC50 (Vero): 4.19 | pEC50 [1]: 5.60 | EC90 [1]: 19.6 µM

Cc1cn([C@H]2C[C@H](N=[N+]=[N-])[C@@H](CO)O2)c(=O)[nH]c1=O [ZIDOVUDINE]
pIC50 (PBMC): < 4.00 | EC90 [1]: 0.026 µM
